{
  "source": "patent US20260266805A1",
  "about": "“METHOD AND COMPOSITIONS FOR ANALYZING TOXICITY IN ORGANISMS” (priority 2023, published 2026)",
  "key": {"[1]": {"system": "C. elegans pharynx", "assay": "Pharynx size analysis from bright field images in vivoChip", "format": "in vivo", "settings": "D1 adults, 1.6 μM, DMSO (0.25%), treated from L1 stage", "description": "FIGS. 25A-25C depict identifying C. elegans organs and organ structures using high-resolution, bright field, and fluorescence images using the vivoChip platform. […] The schematic represents different organs that could be identified and analyzed using image processing or automated machine learning algorithms.\nIdentifying internal organs and organ structures of C. elegans using bright field and fluorescence images: Overall morphology of changes in different tissues within a C. elegans body. Due to the dynamic nature of the tissue architectures, it is expected to change over the animal's age. This approach was used to track tissue architecture during early adult stage C. elegans quantitatively (FIG. 25A). As an example, the study analyzed the pharynx within the C. elegans immobilized inside the vivoChip. […] This well-studied organ has been used to screen several therapeutic drugs and to characterize the amount of food intake readouts. […]\nC. elegans pharynxes present in the best focal plane from individual channels were manually segmented. […] Once the C. elegans body is detected, specific organs can be characterized using the fluorescence reporter (transgenic strains) or fluorescent dyes (feeding or soaking with dye). For example, C. elegans were fed with FITC-dextran overnight to visualize the green signal using fluorescence imaging of device-immobilized animals. […]"}, "[2]": {"system": "C. elegans", "assay": "Nile red (NR) staining of stored body lipids in vivoChip", "format": "in vivo", "settings": "co-cultured for the entire 72 hours, versus control worms", "protocol": "Liquid culture of C. elegans: Worms are synchronized by bleaching a population of gravid C. elegans using the hypochlorite solution. The embryos are then incubated in a glass tube and rotated for 24 hours at 20° C. About 80 larval 1 (L1) worms are plated into a standard 24-well plastic plate with 500 μl S media and HB101 bacteria. The worms are exposed to chemicals or ingredients during the growth in the liquid media for 3 days in a 20° C. incubator.\nImaging of C. elegans using vivoChip: The C. elegans are fed with bacteria and treated with test chemicals for 72 hours in a 20° C. incubator. […] The vivoChip technology allows capture of bright field or fluorescence images from the worms immobilized inside the microfluidic channels.\nNile red (NR) staining to study body lipids: To stain lipid molecules in the C. elegans body, 30 ng/ml and 50 ng/mL were added to the liquid culture at the L1 stage (a total of 72-hour incubation) and L4 stage animals (a total of 24-hour incubation) and maintained the plate at 20° C. […] Bright-field and fluorescence (red filter set) were acquired to capture worm development and the stored lipids in the C. elegans populations.\nAnalysis of NR signal: The individual channels were analyzed to identify the NR signal, mainly within the worm intestinal […] (FIG. 23A). […]"}, "[3]": {"system": "wild-type N2 worms", "assay": "Pilot DART imaging of N2 worms treated with FUdR in a small-scale vivoChip", "format": "in vivo, C. elegans", "settings": "for EC50: Caenorhabditis elegans, N2 L1 larvae, 0-10,000 μM, 72 hrs at 20° C., D1 adults", "protocol": "(§1) Strains and maintenance: The study used the N2 wild type (The Caenorhabditis Natural Diversity Resource, CaeNDR) for all experiments except for the initial vivoChip-2× pilot study, where the study used N2 wild types from the Caenorhabditis Genetics Center (CGC). C. elegans were maintained using the standard methods on nematode growth media (NGM) plates seeded with HB101 Escherichia coli bacteria and maintained at 20° C.. Frozen stocks of strains were also maintained at −80° C. and thawed each year to generate a new set of Dauer plates. Sealed Dauer plates for each strain were stored at 16° C. and used to start a fresh maintenance culture every 3 months by chunking to avoid genetic drift. Worms were cultured for >5 generations before using them for assays in a temperature and humidity-controlled environment.\n(§2) Worm synchronization and large-scale culture: To prepare large numbers of synchronized L1 stage larvae, P0 larval 4 (L4) worms were transferred to NGM plates and grown for 96 hrs till the F1 generation reached maturity, removing the P0 adults after 48 hrs. D1 animals were treated with an alkaline sodium hypochlorite solution with periods of slow and high-speed shaking on a speed-controllable vortex to fragment their bodies and release the embryos before the bleaching solution was neutralized with 5 washes of M9. The eggs were allowed to develop and hatch in the M9 buffer in a rotating glass conical tube for 24 hrs. Hatched synchronized L1s were filtered through a 20 μm cell filter to remove unhatched eggs and debris, counted the number of total larvae, and adjusted the volume to make a final suspension of L1 larvae at a density of ~100 L1s/20 μl.\n(§3) Chemical treatment in liquid culture: The age-synchronized L1 suspension (~100 larvae in 20 μl volumes) was placed in a standard 24-well plate with 480 μl HB101 (OD600^=3.0) suspension in S media. 2.5 μl of chemicals dissolved in H2O, or 1 μL of the chemicals in DMSO were added to the designated wells, keeping solvent concentration constant across all wells. Vehicle control wells received the same volume of each solvent (H2O or 0.2% DMSO). […]\nFor the initial testing of this hypothesis, this study explored the response of wild-type N2 worms when treated various doses of 5-Fluoro-2′-deoxyuridine (FUdR), a drug commonly used to prevent the development of live offspring in C. elegans experimental cultures. […] The length of all worms in each concentration were manually measured by taking the distance from the head to the tail of each animal. The study counted the total number of embryos and the number of embryos visibly moving within the eggshells in each worm through the time stacks (FIGS. 1C-1E)."}, "[4]": {"system": "Daphnia", "settings": "cited from earlier work"}, "[5]": {"system": "C. elegans N2 wild type", "assay": "vivoChip-24x C. elegans DART assay (72 hr liquid culture from L1, 4D imaging of D1 adults)", "format": "in vivo", "protocol": "as §1\nFood preparation: HB101 was streaked on a Luria-Bertani (LB) agar plate with streptomycin (antibiotic) and incubated overnight at 37° C. to generate single colonies. One colony was picked and used to inoculate an overnight 5 mL starter culture in LB broth and antibiotic. 200 μl of this starter culture was added to 200 mL LB broth/streptomycin in a 1000 mL baffled flask and incubated for 18 h with 180 rotations per min (rpm) shaking to reach the end of the log growth phase. OD600 was measured using an Implen DiluPhotometer, and the culture was stored at 4° C. Immediately before worm culture, a sufficient volume of the bacterial culture was centrifuged to generate the required volume of OD600^=3.0 food suspension. The LB supernatant was removed and the pellet was resuspended in S media. This density was optimal for growing 80-100 larval 1 (L1) to the day 1 (D1) adult stage in a 500 μl culture volume with food remaining after 72 hrs, but not so much residual food particles as to interfere with imaging or chip operation.\nChemicals: Methylmercury (II) hydroxide (CH3Hg, Alfa Aesar, CAS #1184-57-2) and 5-Fluoro-2′-deoxyuridinc (FUdR, TCI Chemical, CAS #50-91-9) were dissolved in ultrapure water as master stocks at 200× highest treatment concentration. Propiconazole (Sigma Aldrich, CAS #60207-90-1) was dissolved in dimethylsulfoxide (Sigma Aldrich, CAS #67-68-5) as master stocks at 500× highest treatment concentration. The master stocks were transferred into 0.2 ml tubes as single-use aliquots and kept at −80° C. until needed. The 1 μM dose of CH3Hg was prepared by diluting the stock in ultrapure water prior to the treatment. For the dose-response assays, propiconazole was diluted immediately prior to treatment by serial dilution in DMSO to 500× working dilutions as needed, so that the final DMSO concentration in each well would be 0.2%. DMSO was also added to both the solvent control wells and the CH3Hg control wells to 0.2%.\nas §2\nas §3, with “wells.” for “wells. Vehicle control wells received the same volume of each solvent (H2O or 0.2% DMSO).”"}, "[6]": {"system": "Fathead minnow", "settings": "cited from earlier work"}, "[7]": {"system": "CL2166 strain", "settings": "CL2166, 5.66 μl of 3% H2O2 in 500 μl culture at 68 hours, 4 hours exposure", "procedure": "Image analysis of the C. elegans body and fluorescence signal: The images from the vivoChip platform were cropped into individual channels. The study determined the best focal plane for each worm image (bright-field images) from the stack of images. Individual channel image was analyzed using machine-learning algorithms (developed by vivoVerse) to predict the mask for the worm body inside the individual microfluidic channel. Since several organs in the worm body have a 3D architecture, the study created a maximum-intensity projection of multiple z-slice fluorescence images. Using the maximum projection image, the study then calculated the integrated fluorescence signal within the predicted body mask. The study also estimated the background signal from the pixels outside the body mask and within two successive channel regions. The background signal was used to estimate the corrected total C. elegans fluorescence (CTCF)=integrated density−(area of selected C. elegans body×fluorescence of background readings)\nThe study treated a transgenic strain expressing GFP when exposed to oxidative stress to quantify the stress level in individual worms using high-resolution imaging to quantify sub-lethal changes in the stress levels.\n5.66 μl of 3% H2O2 was added to the 500 μl S media culture with worms at 68 hours to induce oxidative stress. […]"}},
  "note": "Where “and” joins values, the source holds several entries; their conditions need not be identical. Identical values can stand only once. Like-named read-outs stand apart in the source and are kept apart here.",
  "data": [
    {"smiles": "CCOP(=S)(OCC)Oc1nc(Cl)c(Cl)cc1Cl", "note": "[chlorpyrifos]", "values": [
      {"measurement": "total pixels of pharynx compared to vehicle control (DMSO)", "setting": "[1]", "result": "reduced"}
    ]},
    {"smiles": "NCCc1c[nH]c2ccc(O)cc12", "note": "[5-HT, serotonin]", "values": [
      {"measurement": "amount of lipids in the body visualized using NR staining", "setting": "[2]", "result": "significantly lower amount of lipids"}
    ]},
    {"smiles": "O=c1[nH]c(=O)n([C@H]2C[C@H](O)[C@@H](CO)O2)cc1F", "note": "[FUdR, 5-Fluoro-2′-deoxyuridine]", "values": [
      {"measurement": "EC50", "setting": "[3]; read-out: moving embryo parameter, EC50", "result": 26, "unit": "µM"},
      {"measurement": "EC50", "setting": "[3]; read-out: reduction in body length, EC50", "result": 316, "unit": "µM"},
      {"measurement": "EC50", "setting": "[3]; read-out: reduction in the number of total embryos, EC50", "result": 98, "unit": "µM"},
      {"measurement": "concentration causing growth arrest at stages earlier than could be immobilized in the chip", "setting": "[3]; N2 C. elegans, 0-10000 μM", "result": "≥ 500", "unit": "µM"}
    ]},
    {"smiles": "CCCC1COC(Cn2cncn2)(c2ccc(Cl)cc2Cl)O1", "note": "(stereo not drawn) [propiconazole]", "values": [
      {"measurement": "concentration from which embryonic development was affected", "setting": "[4]", "result": "≥ 0.5 mg/L and ≥ 1.46 μM"},
      {"measurement": "concentration at which reduced growth rate left worms too small to be immobilized in the microfluidic channels", "setting": "[5]; N2, 72 hrs", "result": "≥ 333", "unit": "UM"},
      {"measurement": "body length EC10", "setting": "[5]; N2, L1 to D1, 72 hrs, Hill fit", "result": 117.5, "unit": "µM"},
      {"measurement": "body volume EC10", "setting": "[5]; N2, L1 to D1, 72 hrs, Hill fit", "result": 74.9, "unit": "µM"},
      {"measurement": "developed (moving+folded) embryos EC10", "setting": "[5]; N2, L1 to D1, 72 hrs, Hill fit", "result": 10.9, "unit": "µM"},
      {"measurement": "moving embryos EC10", "setting": "[5]; N2, L1 to D1, 72 hrs, Hill fit", "result": 10, "unit": "µM"},
      {"measurement": "total embryos EC10", "setting": "[5]; N2, L1 to D1, 72 hrs, Hill fit", "result": 48.8, "unit": "µM"},
      {"measurement": "concentration from which fecundity was affected", "setting": "[6]", "result": "≥ 0.5 mg/L and ≥ 1.46 μM"}
    ]},
    {"smiles": "OO", "note": "[H2O2, hydrogen peroxide]", "values": [
      {"measurement": "increase of GFP intensity", "setting": "[7]", "result": "~ 60%"}
    ]}
  ]
}
